{"source": "patent EP3789378A1", "about": "“PIPERIDINES OR PIPERIDONES SUBSTITUTED WITH UREA AND HETEROARYL” (Grünenthal GmbH, priority 2019, dated 2021)", "biological_target": "T1, h FPR2 (Homo sapiens, UniProt P25090)", "T1 construct": "expressed in transfected cells", "T1 sequence (P25090 1-351)": "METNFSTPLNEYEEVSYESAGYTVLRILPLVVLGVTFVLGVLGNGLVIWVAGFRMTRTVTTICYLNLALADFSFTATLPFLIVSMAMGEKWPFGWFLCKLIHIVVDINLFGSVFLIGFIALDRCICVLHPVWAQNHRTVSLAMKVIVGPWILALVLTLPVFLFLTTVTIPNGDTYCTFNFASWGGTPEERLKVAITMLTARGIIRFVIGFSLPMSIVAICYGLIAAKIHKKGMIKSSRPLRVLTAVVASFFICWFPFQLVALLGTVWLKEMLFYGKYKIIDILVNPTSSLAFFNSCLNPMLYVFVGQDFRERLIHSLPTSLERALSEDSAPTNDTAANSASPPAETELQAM", "experiment": "Agonistic activity in hFPR2-Aq-CHO cells (FLIPR Calcium 5 fluorescence assay)", "type": "cell-based", "conditions": "for pEC50: 11 point half log dilution, final assay concentration from 10µM", "description": "After washing, the cells are plated at 10,000 cells per well in 40 µL complete medium in a 384-well sterile clear bottom black plate and incubated in a 5% CO2 incubator at 37°C for 18 hours. Plating media is removed from each well by decanting and gentle tapping before 30 µL of 0.5X Calcium 5 dye solution (0.5X FLIPR Calcium 5 dye (Molecular devices, R8186)); HBSS; 20mM HEPES; 2.5mM Probenecid; 0.025% Pluronic F-127; pH adjusted to 7.4) is added to each well and the plate is then incubated at 37°C for 30 minutes. For the assay the plate is equilibrated at room temperature for 10 minutes before placing it in the FLIPR. Compounds are dissolved in DMSO and serially diluted over an 11 point half log (3.16 fold) dilution (2 mM to 20 nM). Compounds are then diluted 1:50 in assay buffer (HBSS; 20mM HEPES; 2.5mM Probenecid; 0.05% gelatin; 0.1% BSA; pH adjusted to 7.4) just before performing the assay. Compounds are finally added to the respective wells of the cell plate (final assay concentration 10 µM to 100 pM) using the FLIPR (e.g. FLIPR-Tetra, Molecular Devices) and fluorescence readings are captured for 5 minutes. The increase in fluorescence from the basal reading in the presence of the compounds is compared with that of the control wells (wells having no compound) to calculate the activity of the compounds. The EC50 values of the compounds can be determined using e.g. Graph pad Prism software.\nAssay method for measuring agonistic activity of compounds in hFPR2-Aq-CHO cell\nCryo-vial containing 6x10^6 cells (hFPR1-Gα15-CHO or hFPR2-Aq-CHO) was thawed in a 37°C water bath. Cells were suspended in 10ml of respective complete growth media (F12(1X)HAM media (Gibco; Cat#11765); 10% HI-FBS (Gibco; Cat#10082); 0.4 mg/ml Geneticin (Gibco; Cat#10131); 0.25 mg/ml Zeocin (Invitrogen; Cat#R25001)) in a 15ml centrifuge tube. The cell viability was checked with the help of Trypan Blue dye. Upon washing the cells, those were plated in a 384-well sterile clear bottom black plate (Greiner Bioone Cat# 781091) so that, each well contained 10,000 cells in 40µl complete growth media. The plate was incubated in a 5% CO2 incubator at 37°C for 18 hours. Before assay on the next day, the cell plating media was removed from each well of the plate by decanting and gentle tapping. 30µl of 0.5X Calcium 5 dye solution (0.5X FLIPR Calcium 5 dye (Molecular devices Cat# R8186); HBSS (Invitrogen; Cat#14025); 20mM HEPES (Sigma; Cat#H0887); 2.5mM Probenecid (Sigma; Cat#P8761); 0.025% Pluronic F-127 (Sigma; Cat#P2443); pH adjusted to 7.4) was added to each well. The plate was then incubated at 37°C for 30 minutes. Following which the plate was equilibrated at room temperature for 10 minutes before placing it in a 384 well FLIPR for assay. Compounds were dissolved in DMSO and serially diluted following 11 point half log (3.16 fold) dilution with a starting concentration of 2mM (Final assay concentration 10µM). Aliquots of above mentioned each dilution was mixed with assay buffer (HBSS (Invitrogen; Cat#14025); 20mM HEPES (Sigma; Cat#H0887); 2.5mM Probenecid (Sigma; Cat#P8761); 0.05% gelatin (Sigma; Cat#G1890); 0.1% BSA (Sigma; Cat#A3059); pH adjusted to 7.4) just before performing the assay. Compounds were added to the respective wells of the assay ready cell plate with the help of the FLIPR (FLIPR Tetra) and fluorescence readings were captured for 5 minutes to measure any agonistic response of the compounds. The increase in fluorescence readings from the basal reading in presence of the compounds were compared with that of the control wells (wells having no compound) to calculate the agonistic activity of the compounds. The EC50 values of the compounds were determined using the Graph pad Prism software.", "note": "pEC50: −log10 of the molar value.", "data": [{"smiles": "COCCCN1CC[C@@H](NC(=O)Nc2ccc(Cl)cc2)[C@H](c2ccc(OC)cn2)C1", "note": "(racemic) [Ex-80, trans-1-(4-chloro-phenyl)-3-[5-methoxy-1'-(3-methoxy-propyl)-1',2',3',4',5',6'-hexahydro-[2,3']bipyridinyl-4'-yl]-urea]", "values": [{"measurement": "pEC50", "result": 9.05}]}, {"smiles": "COc1ccc([C@@H]2CN(C(=O)C3CCN(C)CC3)CC[C@H]2NC(=O)Nc2ccc(Cl)cc2)nc1", "note": "(racemic) [Ex-89, trans-1-(4-chloro-phenyl)-3-[5-methoxy-1'-(1-methyl-piperidine-4-carbonyl)-1',2',3',4',5',6'-hexahydro-[2,3']bipyridinyl-4'-yl]-urea]", "values": [{"measurement": "pEC50", "result": 8.70}]}, {"smiles": "COc1ccc([C@@H]2CN(C(=O)CN(C)C)CC[C@H]2NC(=O)Nc2ccc(Cl)cc2)nc1", "note": "(racemic) [Ex-94, trans-1-(4-chloro-phenyl)-3-[1'-(2-dimethylamino-acetyl)-5-methoxy-1',2',3',4',5',6'-hexahydro-[2,3']bipyridinyl-4'-yl]-urea]", "values": [{"measurement": "pEC50", "result": 8.70}]}, {"smiles": "COc1ccc([C@@H]2CN(CC(F)F)CC[C@H]2NC(=O)Nc2ccc(C#N)cc2)nc1", "note": "(racemic) [Ex-113, trans-1-(4-cyanophenyl)-3-[1-(2,2-difluoroethyl)-3-(5-methoxy-2-pyridyl)-4-piperidyl]urea]", "values": [{"measurement": "pEC50", "result": 8.92}]}, {"smiles": "COc1ccc([C@@H]2CN(C(=O)C3CNC3)CC[C@H]2NC(=O)Nc2ccccc2)nc1", "note": "(racemic) [Ex-165, trans-1-[1-(Azetidine-3-carbonyl)-3-(5-methoxy-pyridin-2-yl)-piperidin-4-yl]-3-phenyl-urea]", "values": [{"measurement": "pEC50", "result": 7.96}]}, {"smiles": "COc1ccc([C@@H]2CN(c3ccncn3)CC[C@H]2NC(=O)Nc2ccc(Cl)cc2)cn1", "note": "(relative stereo) [Ex-1, trans-1-(4-chloro-phenyl)-3-(6'-methoxy-1-pyrimidin-4-yl-1,2,3,4,5,6-hexahydro-[3,3']bipyridinyl-4-yl)-urea]", "values": [{"measurement": "pEC50", "result": 8.22}]}, {"smiles": "COc1ccc([C@@H]2CN(c3ccc(F)cc3)CC[C@H]2NC(=O)Nc2ccc(Cl)cc2)cn1", "note": "(relative stereo) [Ex-2, trans-1-(4-chloro-phenyl)-3-[1-(4-fluoro-phenyl)-6'-methoxy-1,2,3,4,5,6-hexahydro-[3,3']bipyridinyl-4-yl]-urea]", "values": [{"measurement": "pEC50", "result": 7.96}]}, {"smiles": "COc1ccc([C@@H]2CN(c3ccc(F)cc3)CC[C@H]2NC(=O)Nc2cc(C)ns2)cn1", "note": "(relative stereo) [Ex-3, trans-1-[1-(4-fluoro-phenyl)-6'-methoxy-1,2,3,4,5,6-hexahydro-[3,3']bipyridinyl-4-yl]-3-(3-methyl-isothiazol-5-yl)-urea]", "values": [{"measurement": "pEC50", "result": 8.00}]}, {"smiles": "COc1ccc([C@@H]2CN(c3ccncn3)CC[C@H]2NC(=O)Nc2cc(C)ns2)cn1", "note": "(relative stereo) [Ex-4, trans-1-(6'-methoxy-1-pyrimidin-4-yl-1,2,3,4,5,6-hexahydro-[3,3']bipyridinyl-4-yl)-3-(3-methyl-isothiazol-5-yl)-urea]", "values": [{"measurement": "pEC50", "result": 7.96}]}, {"smiles": "COc1ccc([C@@H]2CN(c3ccc(F)cc3)C(=O)C[C@H]2NC(=O)Nc2ccc(Cl)cc2)cn1", "note": "(relative stereo) [Ex-5, trans-1-(4-chlorophenyl)-3-[-1-(4-fluorophenyl)-5-(6-methoxypyridin-3-yl)-2-oxopiperidin-4-yl]urea]", "values": [{"measurement": "pEC50", "result": 9.80}]}, {"smiles": "COc1ccc([C@H]2CN(c3ccc(F)cc3)C(=O)C[C@H]2NC(=O)Nc2ccc(Cl)cc2)cn1", "note": "(relative stereo) [Ex-6, cis-1-(4-chlorophenyl)-3-[1-(4-fluorophenyl)-5-(6-methoxypyridin-3-yl)-2-oxopiperidin-4-yl]urea]", "values": [{"measurement": "pEC50", "result": 8.22}]}, {"smiles": "COc1ccc([C@@H]2CN(c3ccncn3)CC[C@H]2NC(=O)Nc2ccc(Cl)cc2)nc1", "note": "(relative stereo) [Ex-7, trans-1-(4-chloro-phenyl)-3-(5-methoxy-1'-pyrimidin-4-yl-1',2',3',4',5',6'-hexahydro-[2,3']bipyridinyl-4'-yl)-urea]", "values": [{"measurement": "pEC50", "result": 9.40}]}, {"smiles": "COc1ccc([C@@H]2CN(c3ccncn3)CC[C@H]2NC(=O)Nc2cc(C)ns2)nc1", "note": "(relative stereo) [Ex-8, trans-1-(5-methoxy-1'-pyrimidin-4-yl-1',2',3',4',5',6'-hexahydro-[2,3']bipyridinyl-4'-yl)-3-(3-methyl-isothiazol-5-yl)-urea]", "values": [{"measurement": "pEC50", "result": 9.00}]}, {"smiles": "O=C(Nc1ccc(Cl)cc1)N[C@@H]1CCN(c2ccncn2)C[C@H]1c1ccc(Cl)cn1", "note": "(relative stereo) [Ex-9, trans-1-(4-chloro-phenyl)-3-(5-chloro-1'-pyrimidin-4-yl-1',2',3',4',5',6'-hexahydro-[2,3']bipyridinyl-4'-yl)-urea]", "values": [{"measurement": "pEC50", "result": 8.70}]}, {"smiles": "COc1ccc([C@@H]2CN(c3ccc(F)cc3)C(=O)C[C@H]2NC(=O)Nc2ccc(Cl)cc2)nc1", "note": "(relative stereo) [Ex-10, trans-1-(4-chlorophenyl)-3-[1-(4-fluorophenyl)-5-(5-methoxypyridin-2-yl)-2-oxopiperidin-4-yl]urea]", "values": [{"measurement": "pEC50", "result": 10.30}]}, {"smiles": "COc1ccc([C@H]2CN(c3ccc(F)cc3)C(=O)C[C@H]2NC(=O)Nc2ccc(Cl)cc2)nc1", "note": "(relative stereo) [Ex-11, cis-1-(4-chlorophenyl)-3-[1-(4-fluorophenyl)-5-(5-methoxypyridin-2-yl)-2-oxopiperidin-4-yl]urea]", "values": [{"measurement": "pEC50", "result": 8.22}]}, {"smiles": "O=C(Nc1ccc(Cl)cc1)N[C@@H]1CCN(c2ccc(F)cc2)C[C@H]1c1ccc(Cl)cn1", "note": "(relative stereo) [Ex-12, trans-1-[5-chloro-1'-(4-fluoro-phenyl)-1',2',3',4',5',6'-hexahydro-[2,3']bipyridinyl-4'-yl]-3-(4-chlorophenyl)-urea]", "values": [{"measurement": "pEC50", "result": 8.05}]}, {"smiles": "Cc1cc(NC(=O)N[C@@H]2CCN(c3ccncn3)C[C@H]2c2ccc(Cl)cn2)sn1", "note": "(relative stereo) [Ex-13, trans-1-(5-chloro-1'-pyrimidin-4-yl-1',2',3',4',5',6'-hexahydro-[2,3']bipyridinyl-4'-yl)-3-(3-methyl-isothiazol-5-yl)-urea]", "values": [{"measurement": "pEC50", "result": 8.70}]}, {"smiles": "O=C(Nc1ccc(Cl)cc1)N[C@@H]1CC(=O)N(c2ccc(F)cc2)C[C@H]1c1ccc(Cl)cn1", "note": "(relative stereo) [Ex-14, trans-1-(4-chlorophenyl)-3-[5-(5-chloropyridin-2-yl)-1-(4-fluorophenyl)-2-oxopiperidin-4-yl]urea]", "values": [{"measurement": "pEC50", "result": 9.40}]}, {"smiles": "Cc1cc(NC(=O)N[C@@H]2CCN(c3ccncn3)C[C@H]2c2ccc(Cl)cn2)sn1", "note": "(relative stereo) [Ex-17, trans-1-(5-chloro-1'-pyrimidin-4-yl-1',2',3',4',5',6'-hexahydro-[2,3']bipyridinyl-4'-yl)-3-(3-methyl-isothiazol-5-yl)-urea]", "values": [{"measurement": "activation at 0.1 µM", "setting": "agonistic response at 0.1µM", "result": 30, "unit": "%"}]}, {"smiles": "COc1ccc([C@@H]2CN(c3ccc(F)cc3)CC[C@H]2NC(=O)Nc2ccc(Cl)cc2)nc1", "note": "(relative stereo) [Ex-18, trans-1-(4-chloro-phenyl)-3-[1'-(4-fluoro-phenyl)-5-methoxy-1',2',3',4',5',6'-hexahydro-[2,3']bipyridinyl-4'-yl]-urea]", "values": [{"measurement": "pEC50", "result": 9.10}]}]}
